In brackets after ≈: the same amount, converted by molar mass. Like-named read-outs stand apart in the source and are kept apart here.
Experiments:
Candida lusitaniae [1] = experiment: MIC by broth microdilution (CLSI M27-A3); assay type: cell-based; conditions: CL3, […]10^5 cells/mL, 30°C, OD600 48 h
Candida albicans = experiment: Minimum fungicidal concentration (MFC), plating after MIC assay; assay type: cell-based; conditions: […]10^5 cells/mL
Candida lusitaniae [2] = experiment: as above; assay type: cell-based; conditions: C. Lusitania (CL3), Sensitive; RPMI 1640 (0.2% Glucose); […]10^5 cells/mL; 30° C.
Cryptococcus neoformans [3] = experiment: MIC by broth microdilution (CLSI M27-A3); assay type: cell-based; conditions: […]10^3 cells/mL
Cryptococcus gattii [4] = experiment: MIC by broth microdilution (CLSI M27-A3); assay type: cell-based; conditions: […]10^3 cells/mL
Cryptococcus neoformans [5] = experiment: Minimum fungicidal concentration (MFC), plating after MIC assay; assay type: cell-based; conditions: RPMI 1640 (0.2% Glucose), […]10^3 cells/mL, 37° C.
Cryptococcus gattii [6] = experiment: as above; assay type: cell-based; conditions: Sensitive, RPMI 1640 (0.2% Glucose), […]10^3 cells/mL, 37° C.
Candida spp. = experiment: MIC and MFC by broth microdilution, summary over Candida strains; assay type: cell-based; conditions: Candida test strains, except resistant strain E4
Cryptococcus spp. = experiment: MIC and MFC by broth microdilution, summary over Cryptococcus strains; assay type: cell-based
RAW 264.7 macrophages = experiment: In vitro cytotoxicity (CytoTox-ONE, LDH release); conditions: 12 hours

Question: For `C[C@@H]1[C@H](O)[C@@H](C)/C=C/C=C/C=C/C=C/C=C/C=C/C=C/[C@H](O[C@@H]2O[C@H](C)[C@@H](O)[C@H](N)[C@@H]2O)C[C@@H]2O[C@](O)(C[C@@H](O)C[C@@H](O)[C@H](O)CC[C@@H](O)C[C@@H](O)CC(=O)O[C@H]1C)C[C@H](O)[C@H]2C(=O)O` [AMB, amphotericin B], which MIC (Candida lusitaniae [1]; trial 1) is on record?
Answer: 0.4 µg/mL

Question: What about the MIC (Candida lusitaniae [1]; trial 1, read-out: MIC) of the same molecule?
Answer: 0.4 µM

Question: What about the MIC (Candida lusitaniae [1]; trial 2) of the same molecule?
Answer: 0.4 µg/mL

Question: What about the MFC (Candida albicans; C. albicans (E4), Amp B Resistant, RPMI 1640 (0.2% Glucose), 30° C.) of the same molecule?
Answer: 12.5 µg/mL

Question: What about the MFC (Candida albicans; C. albicans (Gu5), Fluconazole Resistant, RPMI 1640 (0.2% Glucose), 30° C.) of the same molecule?
Answer: 1.56 µg/mL

Question: And the MFC (Candida albicans; C. albicans (K1), Fluconazole Resistant, RPMI 1640 (0.2% Glucose), 30° C.)?
Answer: 3.13 µg/mL

Question: And the MFC (Candida albicans; C. albicans (SCG5314), Sensitive, RPMI 1640 (0.2% Glucose), 30° C.)?
Answer: 1.56 µg/mL

Question: What about the MFC (Candida albicans; E4, 30°C, avg.) of the same molecule?
Answer: 12.5 µg/mL

Question: And the MFC (Candida albicans; E4, 30°C, avg., read-out: MFC)?
Answer: 13.5 µM

Question: And the MFC (Candida albicans; E4, 30°C, trial 1)?
Answer: 12.5 µg/mL

Question: And the MFC (Candida albicans; E4, 30°C, trial 1, read-out: MFC)?
Answer: 13.5 µM

Question: And the MFC (Candida albicans; E4, 30°C, trial 2)?
Answer: 12.5 µg/mL

Question: And the MFC (Candida albicans; E4, 30°C, trial 2, read-out: MFC)?
Answer: 13.5 µM

Question: And the MFC (Candida albicans; Gu5, 30°C, avg.)?
Answer: 1.6 µg/mL

Question: And the MFC (Candida albicans; Gu5, 30°C, avg., read-out: MFC)?
Answer: 1.7 µM

Question: What about the MFC (Candida albicans; Gu5, 30°C, trial 1) of the same molecule?
Answer: 1.6 µg/mL

Question: And the MFC (Candida albicans; Gu5, 30°C, trial 1, read-out: MFC)?
Answer: 1.7 µM

Question: What about the MFC (Candida albicans; Gu5, 30°C, trial 2) of the same molecule?
Answer: 1.6 µg/mL

Question: And the MFC (Candida albicans; Gu5, 30°C, trial 2, read-out: MFC)?
Answer: 1.7 µM

Question: What about the MFC (Candida albicans; K1, 30°C, avg.) of the same molecule?
Answer: 3.1 µg/mL

Question: What about the MFC (Candida albicans; K1, 30°C, avg., read-out: MFC) of the same molecule?
Answer: 3.4 µM

Question: And the MFC (Candida albicans; K1, 30°C, trial 1)?
Answer: 3.1 µg/mL

Question: What about the MFC (Candida albicans; K1, 30°C, trial 1, read-out: MFC) of the same molecule?
Answer: 3.4 µM

Question: And the MFC (Candida albicans; K1, 30°C, trial 2)?
Answer: 3.1 µg/mL

Question: What about the MFC (Candida albicans; K1, 30°C, trial 2, read-out: MFC) of the same molecule?
Answer: 3.4 µM

Question: And the MFC (Candida albicans; SC5314, 30°C, avg.)?
Answer: 1.6 µg/mL

Question: What about the MFC (Candida albicans; SC5314, 30°C, avg., read-out: MFC) of the same molecule?
Answer: 1.7 µM

Question: What about the MFC (Candida albicans; SC5314, 30°C, trial 1) of the same molecule?
Answer: 1.6 µg/mL

Question: What about the MFC (Candida albicans; SC5314, 30°C, trial 1, read-out: MFC) of the same molecule?
Answer: 1.7 µM

Question: And the MFC (Candida albicans; SC5314, 30°C, trial 2)?
Answer: 1.6 µg/mL

Question: What about the MFC (Candida albicans; SC5314, 30°C, trial 2, read-out: MFC) of the same molecule?
Answer: 1.7 µM

Question: And the MFC (Candida lusitaniae [2])?
Answer: 1.56 µg/mL (≈ 1.69 µM)

Question: What about the MIC (Cryptococcus neoformans [3]; B3501, 30°C, […]) of the same molecule?
Answer: 0.8 µg/mL

Question: And the MIC (Cryptococcus neoformans [3]; B3501, 30°C, […], Table 15)?
Answer: 0.9 µM

Question: And the MIC (Cryptococcus neoformans [3]; C21F3, 30°C, OD600 48 h)?
Answer: 0.8 µg/mL

Question: What about the MIC (Cryptococcus neoformans [3]; C21F3, 30°C, OD600 48 h, Table 15) of the same molecule?
Answer: 0.9 µM

Question: What about the MIC (Cryptococcus neoformans [3]; C. neoformans (B3501), Sensitive, RPMI 1640 (0.2% Glucose), 37° C.) of the same molecule?
Answer: 0.8 µg/mL

Question: And the MIC (Cryptococcus neoformans [3]; C. neoformans (B3501), 30°C)?
Answer: 0.9 µM

Question: And the MIC (Cryptococcus neoformans [3]; C. neoformans (C21F3), 30°C)?
Answer: 0.9 µM

Question: And the MIC (Cryptococcus neoformans [3]; C. neoformans (H99), Sensitive, RPMI 1640 (0.2% Glucose), 37° C.)?
Answer: 1.6 µg/mL

Question: What about the MIC (Cryptococcus neoformans [3]; C. neoformans (H99), 30°C) of the same molecule?
Answer: 1.7 µM

Question: What about the MIC (Cryptococcus neoformans [3]; C. neoformans (JEC21), Sensitive, RPMI 1640 (0.2% Glucose), 37° C.) of the same molecule?
Answer: 0.2 µg/mL

Question: And the MIC (Cryptococcus neoformans [3]; C. neoformans (JEC21), 30°C)?
Answer: 0.2 µM

Question: What about the MIC (Cryptococcus neoformans [3]; H99, 30°C, OD600 48 h) of the same molecule?
Answer: 1.6 µg/mL

Question: And the MIC (Cryptococcus neoformans [3]; H99, 30°C, OD600 48 h, Table 15)?
Answer: 1.7 µM

Question: What about the MIC (Cryptococcus neoformans [3]; JEC21, 30°C, OD600 48 h) of the same molecule?
Answer: 0.2 µg/mL

Question: What about the MIC (Cryptococcus neoformans [3]; JEC21, 30°C, OD600 48 h, Table 15) of the same molecule?
Answer: 0.2 µM

Question: What about the MIC (Cryptococcus neoformans [3]; […], RPMI 1640 (0.2% Glucose), 37° C.) of the same molecule?
Answer: 0.8 µg/mL

Question: And the MIC (Cryptococcus gattii [4]; C751, 30°C, OD600 48 h)?
Answer: ≤0.2 µg/mL

Question: What about the MIC (Cryptococcus gattii [4]; C751, 30°C, OD600 48 h, Table 15, read-out: MIC) of the same molecule?
Answer: ≤0.2 µM

Question: And the MIC (Cryptococcus gattii [4]; C. gattii (C751), Sensitive, RPMI 1640 (0.2% Glucose), 37° C.)?
Answer: ≤0.2 µg/mL

Question: What about the MIC (Cryptococcus gattii [4]; C. gattii (C751), 30°C, read-out: MIC) of the same molecule?
Answer: ≤0.2 µM

Question: And the MIC (Cryptococcus gattii [4]; C. gattii (WM275), Sensitive, RPMI 1640 (0.2% Glucose), 37° C.)?
Answer: 0.8 µg/mL

Question: What about the MIC (Cryptococcus gattii [4]; C. gattii (WM276), 30°C, read-out: MIC) of the same molecule?
Answer: 0.9 µM

Question: What about the MIC (Cryptococcus gattii [4]; WM276, 30°C, OD600 48 h) of the same molecule?
Answer: 0.8 µg/mL

Question: And the MIC (Cryptococcus gattii [4]; WM276, 30°C, OD600 48 h, Table 15, read-out: MIC)?
Answer: 0.9 µM

Question: What about the MFC (Cryptococcus neoformans [5]; C. neoformans (B3501), Sensitive) of the same molecule?
Answer: 0.8 µg/mL (≈ 0.866 µM)

Question: What about the MFC (Cryptococcus neoformans [5]; C. neoformans (C21F3), Rapamycin Resistant) of the same molecule?
Answer: 0.8 µg/mL (≈ 0.866 µM)

Question: And the MFC (Cryptococcus neoformans [5]; C. neoformans (H99), Sensitive)?
Answer: 1.6 µg/mL (≈ 1.73 µM)

Question: What about the MFC (Cryptococcus neoformans [5]; C. neoformans (JEC21), Sensitive) of the same molecule?
Answer: 0.4 µg/mL (≈ 0.433 µM)

Question: And the MFC (Cryptococcus gattii [6]; C. gattii (C751))?
Answer: 0.8 µg/mL (≈ 0.866 µM)

Question: And the MFC (Cryptococcus gattii [6]; C. gattii (WM275))?
Answer: 3.1 µg/mL (≈ 3.35 µM)

Question: And the “MIC and MFC values” (Candida spp.)?
Answer: sub-μM

Question: And the MIC (Cryptococcus spp.; Cryptococcus test strains)?
Answer: ~1 µM (≈ 0.924 µg/mL)

Question: And the MFC (Cryptococcus spp.; Cryptococcus test strains (FLC: all strains except C21F3))?
Answer: ~1 µM (≈ 0.924 µg/mL)

Question: What about the “cell death at the highest concentration tested” value (RAW 264.7 macrophages) of the same molecule?
Answer: less than 50%

Question: And the “concentration causing 10% cell death (IC10)” value (RAW 264.7 macrophages)?
Answer: 108 µM
